Assay results published in patent US12343363B2, “Lactic acid bacterial composition for the treatment of bacterial vaginal infections by Gardnerella vaginalis and, if present, of concurrent fungal infections” (PROBIOTICAL S.P.A., priority 2016, dated 2025).
≈ marks a conversion by molar mass, not a printed value.

Assays:
C. tropicalis ATCC 750 = assay: Miconazole broth macrodilution test (optical density); assay type: cell-based, Candida tropicalis
Text: (§1) The strains of Candida being used in the present study were purchased from the American Type Culture Collection (ATCC). Specifically, the following biotypes were used: C. albicans ATCC 10231, C. parapsilosis ATCC 22019, C. krusei ATCC 6258, C. glabrata ATCC 2001 and C. tropicalis ATCC 750 (14). The strains of lactobacilli of this study, all isolated from vaginal swabs of healthy female subjects or directly brushing the intestinal mucosa of healthy humans, were classified based on their phenotypic and genotypic characteristics: L. fermentum LF5 (DSM 32277), L. fermentum LF09 (DSM 18298), L. fermentum LF10 (DSM 19187) and L. fermentum LF11 (DSM 19188).
(§2) The probiotic strains were cultured overnight in De Man, Rogosa and Sharpe (MRS) medium (Difco, B D, Maryland). In all the experiments, fresh culture media for all the strains of Candida were used. Before the experiment, the single strains of Candida were cultured in Sabouraud Dextrose Broth (Difco, B D, Maryland), an optimal medium for yeasts, for 48 hours under aerobic conditions.
(§3) Evaluation of the fungicidal activity. The minimum inhibitory concentration (MIC) for fluconazole was determined by E-test (bioMerieux Italy, Florence) with MHE agar. The plates were incubated under aerobic conditions at 30° C. and read after 24 hours. Furthermore, since there is no specific E-test for miconazole, the MIC was determined by using the broth macrodilution method. We assessed the activity of serially diluted fluconazole and miconazole (Sigma-Aldrich, Missouri, USA) (from […] to […]) against the Candida strains. Serial dilutions of azoles were prepared in Sabouraud Dextrose Broth in the presence of strains of Candida and broths were incubated under aerobic conditions at 30° C. and then read at an optical density (DO) of 560 nm.

C. albicans ATCC 10231 = assay: as above; assay type: cell-based, Candida albicans
Text: as §1, §2, §3

C. krusei ATCC 6258 = assay: as above; assay type: cell-based, Candida krusei
Text: as §1, §2, §3

Candida albicans = assay: Single-blind clinical study of LF5 vaginal capsules compared with miconazole; assay type: in vivo, human
Protocol: 100 patients with vaginal candidiasis, average age of 38.0 years (range 19-61 years) randomly assigned to two groups, which resulted homogeneous, each of 50 patients treated with miconazole or LF5 dosed at ≤10^9 in vaginal capsule formulation at a dosage of 1 vaginal capsule at night for three consecutive days, according to the single-blind experimental design were treated.
No discontinuations during the treatment nor during the two weeks of post-treatment observation occurred; thus two groups of 50 observations for efficacy and tolerability are provided.

[1] = system: C. parapsilosis ATCC 22019; assay: Miconazole broth macrodilution test (optical density); assay type: cell-based, Candida parapsilosis
Text: as §1, §2, §3

C. glabrata ATCC 2001 = assay: as above; assay type: cell-based, Candida glabrata
Text: as §1, §2, §3

[2] = system: Candida glabrata ATCC 2001; assay: Fluconazole MIC by E-test; assay type: cell-based; settings: Nakaseomyces glabratus, ATCC2001; E_test, range 0.016-256 μg/ml; read-out: MIC (minimum inhibitory concentration)
Text: as §1, §3

Candida krusei ATCC 6258 = assay: Fluconazole MIC by E-test; assay type: cell-based; settings: Pichia kudriavzevii, ATCC6258; E_test, range 0.016-256 μg/ml; read-out: MIC (minimum inhibitory concentration)
Text: as §1, §3

[3] = system: Candida tropicalis ATCC 750; assay: Fluconazole MIC by E-test; assay type: cell-based; settings: ATCC750, E_test, range 0.016-256 μg/ml, read-out: MIC (minimum inhibitory concentration)
Text: as §1, §3

[4] = system: Candida parapsilosis ATCC 22019; assay: Fluconazole MIC by E-test; assay type: cell-based; settings: Lodderomyces parapsilosis, ATCC22019; E_test, range 0.016-256 μg/ml; read-out: MIC (minimum inhibitory concentration)
Text: as §1, §3

[5] = Miconazole 1 μg/ml, broth macrodilution

## Clc1ccc(COC(Cn2ccnc2)c2ccc(Cl)cc2Cl)c(Cl)c1 (stereo not drawn) [Miconazole, miconazole]
C. tropicalis ATCC 750; Miconazole 1.000 μg/ml
  optical density, OD: 1.931
C. tropicalis ATCC 750; [5]
  optical density, OD: 1.950
C. tropicalis ATCC 750; Miconazole 2.50 μg/ml
  optical density, OD: 1.927
C. tropicalis ATCC 750; Miconazole 5.00 μg/ml
  optical density, OD: 1.908
C. tropicalis ATCC 750; Miconazole 50 μg/ml
  optical density, OD: 1.846
C. tropicalis ATCC 750; Miconazole 250 μg/ml
  optical density, OD: 1.942
C. tropicalis ATCC 750; Miconazole 300 μg/ml
  optical density, OD: 1.937
C. tropicalis ATCC 750; Miconazole 500 μg/ml
  optical density, OD: 1.903
C. albicans ATCC 10231; Miconazole 1.000 μg/ml
  optical density, OD: 1.464
C. albicans ATCC 10231; [5]
  optical density, OD: 1.906
C. albicans ATCC 10231; Miconazole 2.50 μg/ml
  optical density, OD: 1.910
C. albicans ATCC 10231; Miconazole 5.00 μg/ml
  optical density, OD: 1.901
C. albicans ATCC 10231; Miconazole 50 μg/ml
  optical density, OD: 1.905
C. albicans ATCC 10231; Miconazole 250 μg/ml
  optical density, OD: 1.916
C. albicans ATCC 10231; Miconazole 300 μg/ml
  optical density, OD: 1.889
C. albicans ATCC 10231; Miconazole 500 μg/ml
  optical density, OD: 1.863
C. krusei ATCC 6258; Miconazole 1.000 μg/ml
  optical density, OD: 1.972
C. krusei ATCC 6258; [5]
  optical density, OD: 1.990
C. krusei ATCC 6258; Miconazole 2.50 μg/ml
  optical density, OD: 1.900
C. krusei ATCC 6258; Miconazole 5.00 μg/ml
  optical density, OD: 1.893
C. krusei ATCC 6258; Miconazole 50 μg/ml
  optical density, OD: 1.994
C. krusei ATCC 6258; Miconazole 250 μg/ml
  optical density, OD: 2.004
C. krusei ATCC 6258; Miconazole 300 μg/ml
  optical density, OD: 1.999
C. krusei ATCC 6258; Miconazole 500 μg/ml
  optical density, OD: 1.988
Candida albicans; 50 patients per group
  local adverse events: 6 cases
Candida albicans; 3 days, 1 vaginal capsule at night for three consecutive days, 50 patients per group
  Positive/negative: 3/47
Candida albicans; Final (two weeks of post-treatment observation), 50 patients per group
  Positive/negative: 8/42
Candida albicans; at the end of the three-day treatment
  microbiological eradication of Candida, patients: 94%
Candida albicans; female, human, in vivo, 3 days
  frequency of local adverse events: 12%
Candida albicans; number of 50 patients
  Adverse events: Adverse: 47
  Adverse events: Present: 3
  Eradication: Failure: 3
  Eradication: Relapse: 5
  Eradication: Success: 42
  Patient's opinion about efficacy: Acceptable: 5
  Patient's opinion about efficacy: Excellent: 38
  Patient's opinion about efficacy: Good: 4
  Patient's opinion about efficacy: None: 3
  Tolerability opinion: Acceptable: 3
  Tolerability opinion: Excellent: 44
  Tolerability opinion: Good: 3
  Tolerability opinion: None: 0
[1]; Lodderomyces parapsilosis, ATCC22019, C. parapsilosis ATCC 22019
  MIC: 1000 µg/mL (≈ 2400 µM)
[1]; Miconazole 1.000 μg/ml
  optical density, OD: 0.295
[1]; [5]
  optical density, OD: 1.515
[1]; Miconazole 2.50 μg/ml
  optical density, OD: 1.115
[1]; Miconazole 5.00 μg/ml
  optical density, OD: 0.975
[1]; Miconazole 50 μg/ml
  optical density, OD: 0.894
[1]; Miconazole 250 μg/ml
  optical density, OD: 0.701
[1]; Miconazole 300 μg/ml
  optical density, OD: 0.415
[1]; Miconazole 500 μg/ml
  optical density, OD: 0.314
C. glabrata ATCC 2001; Miconazole 1.000 μg/ml
  optical density, OD: 2.198
C. glabrata ATCC 2001; [5]
  optical density, OD: 2.260
C. glabrata ATCC 2001; Miconazole 2.50 μg/ml
  optical density, OD: 2.260
C. glabrata ATCC 2001; Miconazole 5.00 μg/ml
  optical density, OD: 2.246
C. glabrata ATCC 2001; Miconazole 50 μg/ml
  optical density, OD: 2.239
C. glabrata ATCC 2001; Miconazole 250 μg/ml
  optical density, OD: 2.212
C. glabrata ATCC 2001; Miconazole 300 μg/ml
  optical density, OD: 2.215
C. glabrata ATCC 2001; Miconazole 500 μg/ml
  optical density, OD: 2.213

## OC(Cn1cncn1)(Cn1cncn1)c1ccc(F)cc1F [fluconazole]
[2]
  MIC: > 256 µg/mL
Candida krusei ATCC 6258
  MIC: > 256 µg/mL
[3]
  MIC: > 256 µg/mL
[4]
  MIC: 1 µg/mL (≈ 3.27 µM)
